Test results reported in patent US9789096B2, “Methods and compositions for selective and targeted cancer therapy” (Board of Regents of the University of Texas System, priority 2013, dated 2017).
pIC50: −log10 of the molar value.

These molecules were tested on HCC44 (assay: Cell viability dose-response, HCC44). Conditions: Homo sapiens, HCC44, Tables 3 and 4; read-out: IC50 (uM) vs indicated non-small cell lung cancer cell line HCC44.
Type: cell-based, human
In short: (§1)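 Compound is titrated onto cells seeded at 15% confluence and incubated four days in 5% FBS RPMI-1640 medium. ATP-based luminescence gives viability; duplicate means ±SEM define the dose-response curve.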
For `O=C(Nc1nc2ccccc2s1)c1cccnc1` [SW006981], the IC50 was 63.7 µM.
For `O=C(Nc1nc2c(s1)CCCC2)c1ccc(Cc2ccccc2)cc1` [SW011940], the IC50 was 50.6 µM.
In the case of `O=C(Nc1cccc(NC(=O)c2sc3ccccc3c2Cl)c1)c1cccc(Cl)c1` [SW023441], the IC50 was 32 µM.
Molecule `O=C(c1ccccc1)c1ccc(NC(=O)c2sc3ccccc3c2Cl)cc1` [SW025780] has an IC50 of 64 µM.
With `O=C(Nc1nc2c(s1)CCCC2)c1ccccc1Oc1ccccc1` [SW045964] the IC50 was 489 µM.

Each molecule was assayed on HCC95 (assay: Cell viability dose-response, HCC95). Conditions: Homo sapiens, Tables 3 and 4, read-out: IC50 (uM) vs indicated non-small cell lung cancer cell line HCC95.
Type: cell-based
Experimental: (§2) FIG. 6A. […] Cell viability is plotted vs. compound concentration. Compound was added to cells plated at 15% confluence in 96-well plates in RPMI-1640 media supplemented with 5% Fetal Bovine Serum and 2 mM L-Glutamine. After 4 days of incubation, ATP levels were measured using Cell Titer Glo (Promega). Data are presented as the average of 2 replicates ±SEM.
(§3) Selectivity may be measured by the half maximal inhibitory concentration (IC50), which, as used herein, is a measure of the effectiveness of a compound in killing cells. This quantitative measure indicates how much of a particular compound is needed to kill a particular cell population by half (e.g., as indicated by the amount of ATP). […] The IC50 can be determined by constructing a dose-response curve. The lower the IC50, the higher the potency, and the greater the difference between IC50 values for different cell lines (e.g., sensitive lines vs. insensitive lines, and sensitive lines vs. normal lines) the greater the selectivity. […]
(§4) With this information, we synthesized and tested a series of small molecules derived in conception from the oxalamide and chromone scaffold including N-acyl ureas, as shown in Tables 6-8. Each compound was tested in a 12-point dose-response study starting at 50 micromolar and decreasing in 3-fold increments to sub-nanomolar concentrations, in duplicate. Additionally, one or more additional cell line was tested in the same way.
`O=C(Nc1nc2ccccc2s1)c1cccnc1` [SW006981] showed an IC50 of 110 µM.
In the case of `O=C(Nc1nc2c(s1)CCCC2)c1ccc(Cc2ccccc2)cc1` [SW011940], the IC50 was 5.86 µM.
Molecule `O=C(Nc1cccc(NC(=O)c2sc3ccccc3c2Cl)c1)c1cccc(Cl)c1` [SW023441] has an IC50 of 14 µM.
`O=C(c1ccccc1)c1ccc(NC(=O)c2sc3ccccc3c2Cl)cc1` [SW025780] gave an IC50 of 7.7 µM.
Molecule `O=C(Nc1nc2c(s1)CCCC2)c1ccccc1Oc1ccccc1` [SW045964] has an IC50 of 140 µM.

These molecules were tested on H1819 (assay: Cell viability dose-response, H1819). Conditions: Homo sapiens, NCI-H1819, Tables 3 and 4; read-out: IC50 (uM) vs indicated non-small cell lung cancer cell line H1819.
Type: cell-based, human
In short: (§5)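 Cells plated at 15% confluence in RPMI-1640 with 5% FBS and 2 mM L-glutamine, treated with compound in a 12-point, 3-fold dilution series from 50 micromolar, in duplicate. ATP measured by Cell Titer Glo after 4 days; IC50 taken from the dose-response curve.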
With `O=C(Nc1nc2ccccc2s1)c1cccnc1` [SW006981] the IC50 was 50 µM.
`O=C(Nc1nc2c(s1)CCCC2)c1ccc(Cc2ccccc2)cc1` [SW011940] gave an IC50 of 46.3 µM.
With `O=C(Nc1cccc(NC(=O)c2sc3ccccc3c2Cl)c1)c1cccc(Cl)c1` [SW023441] the IC50 was 16.4 µM.
Work on `O=C(c1ccccc1)c1ccc(NC(=O)c2sc3ccccc3c2Cl)cc1` [SW025780] yielded an IC50 of 27 µM.
`O=C(Nc1nc2c(s1)CCCC2)c1ccccc1Oc1ccccc1` [SW045964] showed an IC50 of 143 µM.

What follows are molecules tested on H2073 (assay: Cell viability dose-response, H2073). Conditions: Homo sapiens, NCI-H2073, Tables 3 and 4; read-out: IC50 (uM) vs indicated non-small cell lung cancer cell line H2073.
Type: cell-based, human
In short: as §1
In the case of `O=C(Nc1nc2ccccc2s1)c1cccnc1` [SW006981], the IC50 was 12.5 µM.
Work on `O=C(Nc1nc2c(s1)CCCC2)c1ccc(Cc2ccccc2)cc1` [SW011940] yielded an IC50 of 2.63 µM.
In the case of `O=C(Nc1cccc(NC(=O)c2sc3ccccc3c2Cl)c1)c1cccc(Cl)c1` [SW023441], the IC50 was 6.2 µM.
For `O=C(c1ccccc1)c1ccc(NC(=O)c2sc3ccccc3c2Cl)cc1` [SW025780], the IC50 was 0.08 µM.
`O=C(Nc1nc2c(s1)CCCC2)c1ccccc1Oc1ccccc1` [SW045964] gave an IC50 of 3.2 µM.

The molecules below were run on H2009 (assay: Cell viability dose-response, H2009). Conditions: Homo sapiens, NCI-H2009; Tables 3 and 4; read-out: IC50 (uM) vs indicated non-small cell lung cancer cell line H2009.
Type: cell-based, human
In short: as §1
`O=C(Nc1nc2ccccc2s1)c1cccnc1` [SW006981] gave an IC50 of 325 µM.
With `O=C(Nc1nc2c(s1)CCCC2)c1ccc(Cc2ccccc2)cc1` [SW011940] the IC50 was 7 µM.
`O=C(Nc1cccc(NC(=O)c2sc3ccccc3c2Cl)c1)c1cccc(Cl)c1` [SW023441] showed an IC50 of 9.4 µM.
`O=C(c1ccccc1)c1ccc(NC(=O)c2sc3ccccc3c2Cl)cc1` [SW025780] was tested, and the IC50 was 60 µM.
In the case of `O=C(Nc1nc2c(s1)CCCC2)c1ccccc1Oc1ccccc1` [SW045964], the IC50 was 55 µM.

The molecules below were run on H1993 (assay: Cell viability dose-response, H1993). Conditions: Homo sapiens, NCI-H1993; Tables 3 and 4; read-out: IC50 (uM) vs indicated non-small cell lung cancer cell line H1993.
Type: cell-based
Experimental: as §2, §3, §4
With `O=C(Nc1nc2ccccc2s1)c1cccnc1` [SW006981] the IC50 was 21.5 µM.
In the case of `O=C(Nc1nc2c(s1)CCCC2)c1ccc(Cc2ccccc2)cc1` [SW011940], the IC50 was 12.7 µM.
Molecule `O=C(Nc1cccc(NC(=O)c2sc3ccccc3c2Cl)c1)c1cccc(Cl)c1` [SW023441] has an IC50 of 11 µM.
`O=C(c1ccccc1)c1ccc(NC(=O)c2sc3ccccc3c2Cl)cc1` [SW025780] gave an IC50 of 31 µM.
`O=C(Nc1nc2c(s1)CCCC2)c1ccccc1Oc1ccccc1` [SW045964] was tested, and the IC50 was 55.9 µM.

What follows are molecules tested on H1395 (assay: Cell viability dose-response, H1395). Conditions: Homo sapiens, NCI-H1395; Tables 3 and 4; read-out: IC50 (uM) vs indicated non-small cell lung cancer cell line H1395.
Type: cell-based
Experimental: as §2, §3, §4
Molecule `O=C(Nc1nc2ccccc2s1)c1cccnc1` [SW006981] has an IC50 of 51 µM.
With `O=C(Nc1nc2c(s1)CCCC2)c1ccc(Cc2ccccc2)cc1` [SW011940] the IC50 was 35.6 µM.
Work on `O=C(Nc1cccc(NC(=O)c2sc3ccccc3c2Cl)c1)c1cccc(Cl)c1` [SW023441] yielded an IC50 of 10.5 µM.
Molecule `O=C(c1ccccc1)c1ccc(NC(=O)c2sc3ccccc3c2Cl)cc1` [SW025780] has an IC50 of 99 µM.
With `O=C(Nc1nc2c(s1)CCCC2)c1ccccc1Oc1ccccc1` [SW045964] the IC50 was 620 µM.

What follows are molecules tested on H1155 (assay: Cell viability dose-response, H1155). Conditions: Homo sapiens, NCI-H1155; Tables 3 and 4; read-out: IC50 (uM) vs indicated non-small cell lung cancer cell line H1155.
Type: cell-based
Experimental: as §2, §3, §4
`O=C(Nc1nc2ccccc2s1)c1cccnc1` [SW006981] was tested, and the IC50 was 95 µM.
`O=C(Nc1nc2c(s1)CCCC2)c1ccc(Cc2ccccc2)cc1` [SW011940] gave an IC50 of 21.7 µM.
Molecule `O=C(Nc1cccc(NC(=O)c2sc3ccccc3c2Cl)c1)c1cccc(Cl)c1` [SW023441] has an IC50 of 29 µM.
With `O=C(c1ccccc1)c1ccc(NC(=O)c2sc3ccccc3c2Cl)cc1` [SW025780] the IC50 was 33 µM.
`O=C(Nc1nc2c(s1)CCCC2)c1ccccc1Oc1ccccc1` [SW045964] gave an IC50 of 389 µM.

The molecules below were run on HCC4017 (assay: Cell viability dose-response, HCC4017). Conditions: Homo sapiens, HCC4017, Tables 3 and 4; read-out: IC50 (uM) vs indicated non-small cell lung cancer cell line HCC4017.
Type: cell-based, human
Experimental: as §2, §3, §4
With `O=C(Nc1nc2ccccc2s1)c1cccnc1` [SW006981] the IC50 was 76 µM.
For `O=C(Nc1nc2c(s1)CCCC2)c1ccc(Cc2ccccc2)cc1` [SW011940], the IC50 was 4.26 µM.
`O=C(c1ccccc1)c1ccc(NC(=O)c2sc3ccccc3c2Cl)cc1` [SW025780] was tested, and the IC50 was 56 µM.
`O=C(Nc1nc2c(s1)CCCC2)c1ccccc1Oc1ccccc1` [SW045964] was tested, and the IC50 was 407 µM.

Same assay, conditions: Tables 3 and 4; read-out: IC50 (uM) vs indicated non-small cell lung cancer cell line HCC4017
`O=C(Nc1cccc(NC(=O)c2sc3ccccc3c2Cl)c1)c1cccc(Cl)c1` [SW023441] showed an IC50 of 18 µM.

What follows are molecules tested on H460 (assay: Cell viability dose-response, H460). Conditions: Homo sapiens, NCI-H460; Tables 3 and 4; read-out: IC50 (uM) vs indicated non-small cell lung cancer cell line H460.
Type: cell-based
Experimental: as §2, §3, §4
`O=C(Nc1nc2ccccc2s1)c1cccnc1` [SW006981] was tested, and the IC50 was 180 µM.
Work on `O=C(Nc1nc2c(s1)CCCC2)c1ccc(Cc2ccccc2)cc1` [SW011940] yielded an IC50 of 2.13 µM.
Molecule `O=C(Nc1cccc(NC(=O)c2sc3ccccc3c2Cl)c1)c1cccc(Cl)c1` [SW023441] has an IC50 of 48 µM.
`O=C(c1ccccc1)c1ccc(NC(=O)c2sc3ccccc3c2Cl)cc1` [SW025780] gave an IC50 of 46 µM.

What follows are molecules tested on HBEC30KT (assay: Cell viability (ATP, Cell Titer Glo, 4 days), HBEC30KT). Conditions: Homo sapiens, Tables 3 and 4; read-out: HBEC30KT IC50.
Type: cell-based, human
Experimental: as §2, §3
In the case of `O=C(Nc1nc2ccccc2s1)c1cccnc1` [SW006981], the pIC50 was 3.57.
In the case of `O=C(c1ccccc1)c1ccc(NC(=O)c2sc3ccccc3c2Cl)cc1` [SW025780], the pIC50 was 4.29.
`O=C(Nc1nc2c(s1)CCCC2)c1ccccc1Oc1ccccc1` [SW045964] was tested, and the pIC50 was 3.49.

Same assay, conditions: Tables 3 and 4; read-out: HBEC30KT IC50
In the case of `O=C(Nc1cccc(NC(=O)c2sc3ccccc3c2Cl)c1)c1cccc(Cl)c1` [SW023441], the pIC50 was 4.52.

The molecules below were run on HCC366 (assay: Cell viability dose-response, HCC366). Conditions: Homo sapiens, Tables 3 and 4, read-out: IC50 (uM) vs indicated non-small cell lung cancer cell line HCC366.
Type: cell-based
Experimental: as §2, §3, §4
In the case of `O=C(Nc1nc2ccccc2s1)c1cccnc1` [SW006981], the IC50 was 85 µM.
In the case of `O=C(Nc1cccc(NC(=O)c2sc3ccccc3c2Cl)c1)c1cccc(Cl)c1` [SW023441], the IC50 was 23 µM.
With `O=C(c1ccccc1)c1ccc(NC(=O)c2sc3ccccc3c2Cl)cc1` [SW025780] the IC50 was 248 µM.
`O=C(Nc1nc2c(s1)CCCC2)c1ccccc1Oc1ccccc1` [SW045964] gave an IC50 of 149 µM.

The molecules below were run on H2122 (assay: Cell viability dose-response, H2122). Conditions: Homo sapiens, NCI-H2122, Tables 3 and 4; read-out: IC50 (uM) vs indicated non-small cell lung cancer cell line H2122.
Type: cell-based, human
In short: as §5
With `O=C(Nc1nc2ccccc2s1)c1cccnc1` [SW006981] the IC50 was 0.26 µM.
`O=C(Nc1nc2c(s1)CCCC2)c1ccc(Cc2ccccc2)cc1` [SW011940] gave an IC50 of 0.037 µM.
`O=C(Nc1cccc(NC(=O)c2sc3ccccc3c2Cl)c1)c1cccc(Cl)c1` [SW023441] gave an IC50 of 0.39 µM.
For `O=C(c1ccccc1)c1ccc(NC(=O)c2sc3ccccc3c2Cl)cc1` [SW025780], the IC50 was 0.007 µM.
`O=C(Nc1nc2c(s1)CCCC2)c1ccccc1Oc1ccccc1` [SW045964] was tested, and the IC50 was 1 µM.
